Here are results for 35 compounds from patent US9884843B2 (Peloton Therapeutics, Inc., priority 2013, dated 2018).

A value given as a limit tells only on which side of the number the result lay.

The first assay deals with HIF-2α HIS TAG-PASB Domain (Homo sapiens, UniProt Q99814). The assay is described as follows: biochemical. In kind it is binding.
HIF-2α HIS TAG-PASB Domain, sequence (Q99814 whole entry, looked up, the tested form may be a part): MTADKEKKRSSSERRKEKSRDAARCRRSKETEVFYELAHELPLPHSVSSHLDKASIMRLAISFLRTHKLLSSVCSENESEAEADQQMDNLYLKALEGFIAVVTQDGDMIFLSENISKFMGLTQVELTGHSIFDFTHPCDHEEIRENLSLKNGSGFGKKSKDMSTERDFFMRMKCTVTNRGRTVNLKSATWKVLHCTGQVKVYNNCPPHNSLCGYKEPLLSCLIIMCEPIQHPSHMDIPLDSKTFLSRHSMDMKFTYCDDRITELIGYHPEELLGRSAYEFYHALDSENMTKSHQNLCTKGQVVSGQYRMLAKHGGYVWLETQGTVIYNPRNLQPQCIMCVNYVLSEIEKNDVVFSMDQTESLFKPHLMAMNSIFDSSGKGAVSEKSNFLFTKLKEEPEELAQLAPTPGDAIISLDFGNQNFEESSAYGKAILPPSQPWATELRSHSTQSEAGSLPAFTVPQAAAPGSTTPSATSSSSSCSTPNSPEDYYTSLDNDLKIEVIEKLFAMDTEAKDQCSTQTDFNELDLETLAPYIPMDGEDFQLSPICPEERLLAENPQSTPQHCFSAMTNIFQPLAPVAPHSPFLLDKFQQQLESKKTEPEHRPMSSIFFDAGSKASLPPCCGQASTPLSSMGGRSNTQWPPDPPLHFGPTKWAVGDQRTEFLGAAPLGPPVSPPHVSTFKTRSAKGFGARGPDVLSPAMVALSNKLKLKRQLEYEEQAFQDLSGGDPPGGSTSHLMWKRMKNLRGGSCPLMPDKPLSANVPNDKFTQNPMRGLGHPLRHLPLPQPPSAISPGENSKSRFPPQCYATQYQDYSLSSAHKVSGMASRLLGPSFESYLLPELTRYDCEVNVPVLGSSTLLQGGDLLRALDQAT
Settings: not given
An excerpt:
The term “scintillation proximity assay” (SPA) refers to a homogenous assay in which light is emitted when a radiolabeled ligand is brought into close proximity to a radiosensitive bead. The assay typically contains a target protein that contains a tag (e.g., His Tag, Glutathione S-transferase Tag). The tag on the protein is used to bind the target protein to the scintillation bead. Radiolabeled ligand (e.g., labeled with tritium) that binds to the protein is now in close proximity to the bead, and when the raidolabel (e.g., tritium) decays, the high energy particle hits the bead resulting in the emission of light that is detected by a detector, such as photomultiplier tube or CCD camera. When unlabeled ligands or compounds that bind to the protein are used in the assay, they displace the radiolabeled ligand, resulting in loss of signal.
The total assay volume was about 100 μL in the following configuration: 2-μL compound in DMSO, 88 μL buffer with protein and probe and 10 μL of SPA beads. […] To each compound, 88 μL of the buffer solution was then added. […] The percent inhibition was determined and IC50 values were calculated using the Dotmatics system based on the following equation: % inhibition=[(high control−sample)/(high control−low control)]×100.
Consider `COc1cc(F)cc(Oc2ccc3c(c2C#N)[C@@H](O)C(F)(F)S3(=O)=O)c1` [Compound 81, (R)-2,2-difluoro-5-(3-fluoro-5-methoxyphenoxy)-3-hydroxy-2,3-dihydrobenzo[b]thiophene-4-carbonitrile 1,1-dioxide], for which half-maximal inhibition (IC50) was put at 0.067 µM.

The assay is the same for the next values; noted with them: displacement of Compound 120 probe; mean; read-out: Mean SPA IC50.
Consider `N#Cc1cc(F)cc(Oc2ccc3c(c2Br)[C@@H](O)C(F)(F)S3(=O)=O)c1` [Compound 1, (R)-3-((4-bromo-2,2-difluoro-3-hydroxy-1,1-dioxido-2,3-dihydrobenzo[b]thiophen-5-yl)oxy)-5-fluorobenzonitrile], for which the IC50 was 0.007 µM.
Regarding `N#Cc1c(Oc2cc(F)cc(Cl)c2)ccc2c1[C@@H](O)CS2(=O)=O` [Compound 2, (3R)-5-(3-Chloro-5-fluoro-phenoxy)-3-hydroxy-1,1-dioxo-2,3-dihydrobenzothiophene-4-carbonitrile], the IC50 is 0.047 µM.
As for `O=S1(=O)CCc2c1ccc(Oc1cc(F)cc(Cl)c1)c2Br` [Compound 4, 4-Bromo-5-(3-chloro-5-fluorophenoxy)-2,3-dihydrobenzo[b]thiophene 1,1-dioxide], the concentration for half-maximal inhibition (IC50) turned out to be 4.41 µM.
As for `N#Cc1c(Oc2cc(F)cc(Cl)c2)ccc2c1CCS2(=O)=O` [Compound 5, 5-(3-Chloro-5-fluorophenoxy)-2,3-dihydrobenzo[b]thiophene-4-carbonitrile 1,1-dioxide], the IC50 stood at 4.86 µM.
With `O=C1c2c(ccc(Oc3cc(F)cc(Cl)c3)c2Br)S(=O)(=O)C1(F)F` [Compound 8, 4-Bromo-5-(3-chloro-5-fluorophenoxy)-2,2-difluorobenzo[b]thiophen-3(2H)-one 1,1-dioxide], the IC50 is 1.41 µM.
Still for that read-out and setting: next, `NC1c2c(ccc(Oc3cc(F)cc(F)c3)c2C(F)F)S(=O)(=O)C1F` (centres unmarked) [Compound 20, 3-amino-4-(difluoromethyl)-5-(3,5-difluorophenoxy)-2-fluoro-2,3-dihydrobenzo[b]thiophene 1,1-dioxide]: 1.54 µM; `NC1CS(=O)(=O)c2ccc(Oc3cc(F)cc(F)c3)c(C(F)F)c21` (centres unmarked) [Compound 21]: 11.8 µM; `N#Cc1cc(F)cc(Oc2ccc3c(c2C(F)F)C(=N)C(F)S3(=O)=O)c1` (centres unmarked) [Compound 27, 3-((4-(difluoromethyl)-2-fluoro-3-imino-1,1-dioxido-2,3-dihydrobenzo[b]thiophen-5-yl)oxy)-5-fluorobenzonitrile]: 5.84 µM.
Take `O=S1(=O)c2ccc(OC3CCOCC3)c(C(F)F)c2C(O)C1(F)F` (centres unmarked) [Compound 54, 4-(Difluoromethyl)-2,2-difluoro-3-hydroxy-5-((tetrahydro-2H-pyran-4-yl)oxy)-2,3-dihydrobenzo[b]thiophene 1,1-dioxide]: the half-maximal inhibitory concentration (IC50) came out at 1.92 µM.
Same read-out and setting: next, `N#CN=S1(=O)c2ccc(Oc3cc(F)cc(F)c3)c(Cl)c2[C@@H](O)C1(F)F` (stereo partly drawn) [Compound 66, N-((3R)-4-Chloro-5-(3,5-difluorophenoxy)-2,2-difluoro-3-hydroxy-1-oxido-2,3-dihydro-1λ^4-benzo[b]thiophen-1-ylidene)cyanamide]: 0.17 µM.
Turning to `O=S1(=O)c2ccc(Oc3cncc(Cl)c3)c(Br)c2[C@@H](O)C1(F)F` [Compound 75, (R)-4-bromo-5-((5-chloropyridin-3-yl)oxy)-2,2-difluoro-3-hydroxy-2,3-dihydrobenzo[b]thiophene 1,1-dioxide], the 50% inhibitory concentration (IC50) turned out to be 0.12 µM.
For `O=S1(=O)c2ccc(Oc3cncc(F)c3)c(Br)c2[C@@H](O)C1(F)F` [Compound 77, (R)-4-bromo-2,2-difluoro-5-((5-fluoropyridin-3-yl)oxy)-3-hydroxy-2,3-dihydrobenzo[b]thiophene 1,1-dioxide], the IC50 was 0.31 µM.

The same assay, now with this note: unnumbered compounds listed by structure and name; read-out: IC50 value in SPA.
For `N#Cc1cc(F)cc(Oc2ccc3c(c2Cl)C(=O)C(F)(F)S3(=O)=O)c1` [3-(4-chloro-2,2-difluoro-1,1,3-trioxo-benzothiophen-5-yl)oxy-5-fluoro-benzonitrile], the concentration for half-maximal inhibition (IC50) was in the range of 25 to 100 µM.
For `N#Cc1cccc(Oc2ccc3c(c2C(F)F)C(=O)C(F)(F)S3(=O)=O)c1` [3-[4-(difluoromethyl)-2,2-difluoro-1,1,3-trioxo-benzothiophen-5-yl]oxybenzonitrile], the IC50 fell in the range of 25 to 100 µM.
`N#Cc1cc(F)cc(Oc2ccc3c(c2C#CCO)C(O)C(F)(F)S3(=O)=O)c1` (centres unmarked) [3-[[2,2-difluoro-3-hydroxy-4-(3-hydroxyprop-1-ynyl)-1,1-dioxo-3H-benzothiophen-5-yl]oxy]-5-fluoro-benzonitrile]: the IC50 was over 100 µM.
For `N#Cc1cc(F)cc(Oc2ccc3c(c2C(F)F)C(NCC(F)F)CS3(=O)=O)c1` (centres unmarked) [3-[[3-(2,2-difluoroethylamino)-4-(difluoromethyl)-1,1-dioxo-2,3-dihydrobenzothiophen-5-yl]oxy]-5-fluoro-benzonitrile], the IC50 was over 100 µM.
Same read-out and setting: next, `N#CCNC1CS(=O)(=O)c2ccc(Oc3cc(F)cc(C#N)c3)c(C(F)F)c21` (centres unmarked) [3-[[3-(cyanomethylamino)-4-(difluoromethyl)-1,1-dioxo-2,3-dihydrobenzothiophen-5-yl]oxy]-5-fluoro-benzonitrile]: over 100 µM; `CO/C(=C/C(F)F)c1c(Oc2cc(F)cc(C#N)c2)ccc2c1C(O)C(F)(F)S2(=O)=O` (centres unmarked) [3-[[4-[(E)-3,3-difluoro-1-methoxy-prop-1-enyl]-2,2-difluoro-3-hydroxy-1,1-dioxo-3H-benzothiophen-5-yl]oxy]-5-fluoro-benzonitrile]: 25 to 100 µM; `N#Cc1cc(F)cc(Oc2ccc3c(c2C(F)F)C(NCCC(=O)O)C(F)(F)S3(=O)=O)c1` (centres unmarked) [3-[[5-(3-cyano-5-fluoro-phenoxy)-4-(difluoromethyl)-2,2-difluoro-1,1-dioxo-3H-benzothiophen-3-yl]amino]propanoic acid]: over 100 µM.
`N#Cc1cc(F)cc(Oc2ccc3c(c2CF)C(O)CS3(=O)=O)c1` (centres unmarked) [3-fluoro-5-[[4-(fluoromethyl)-3-hydroxy-1,1-dioxo-2,3-dihydrobenzothiophen-5-yl]oxy]benzonitrile]: the IC50 is 25 to 100 µM.
In the case of `NC1c2c(ccc(OC3CCOCC3)c2C(F)F)S(=O)(=O)C1(F)F` (centres unmarked) [4-(difluoromethyl)-2,2-difluoro-1,1-dioxo-5-tetrahydropyran-4-yloxy-3H-benzothiophen-3-amine], the IC50 fell in the range of 25 to 100 µM.
For the compound `O=C1CS(=O)(=O)c2ccc(Oc3ccc(F)c(F)c3)c(C(F)F)c21` [4-(difluoromethyl)-5-(3,4-difluorophenoxy)-1,1-dioxo-benzothiophen-3-one], the 50% inhibitory concentration (IC50) is over 100 µM.
For `O=C1c2c(ccc(Oc3ccc(F)c(F)c3)c2C(F)F)S(=O)(=O)C1(F)F` [4-(difluoromethyl)-5-(3,4-difluorophenoxy)-2,2-difluoro-1,1-dioxo-benzothiophen-3-one], the half-maximal inhibitory concentration (IC50) was over 100 µM.
For `O=C1CS(=O)(=O)c2ccc(Oc3cc(F)cc(F)c3)c(Br)c21` [4-bromo-5-(3,5-difluorophenoxy)-1,1-dioxo-benzothiophen-3-one], the IC50 was over 100 µM.
Same read-out and setting: next, `N=S1(=O)CC(=O)c2c1ccc(Oc1cc(F)cc(F)c1)c2Br` (centres unmarked) [4-bromo-5-(3,5-difluorophenoxy)-1-imino-1-oxo-benzothiophen-3-one]: over 100 µM; `O=S1(=O)c2ccc(Oc3cc(F)cc(Cl)c3)c(Br)c2C(O)C12CC2` (centres unmarked) [4-bromo-5-(3-chloro-5-fluoro-phenoxy)-1,1-dioxo-spiro[3H-benzothiophene-2,1′-cyclopropane]-3-ol]: 25 to 100 µM.
The same measure, in the same setting: next, `N#Cc1c(Oc2cc(F)cc(F)c2)ccc2c1C(O)CS2(=N)=O` (centres unmarked) [5-(3,5-difluorophenoxy)-3-hydroxy-1-imino-2,3-dihydro-1H-1λ^4-benzo[b]thiophene-4-carbonitrile 1-oxide]: over 100 µM.
On the same count and under the same terms, next, `N#Cc1cc(Oc2ccc3c(c2C(F)F)C(=O)C(F)(F)S3(=O)=O)ccc1F` [5-[4-(difluoromethyl)-2,2-difluoro-1,1,3-trioxo-benzothiophen-5-yl]oxy-2-fluoro-benzonitrile]: 25 to 100 µM.
For the compound `N#Cc1cncc(Oc2ccc3c(c2C#N)[C@@H](O)CS3(=O)=O)c1` [5-[[(3R)-4-cyano-3-hydroxy-1,1-dioxo-2,3-dihydrobenzothiophen-5-yl]oxy]pyridine-3-carbonitrile], the IC50 is 25 to 100 µM.
Still for that read-out and setting: next, `O=S1(=O)c2ccc(Oc3cc(F)cc(F)c3)c(Br)c2[C@@H](O)C1F` (stereo partly drawn) [(3R)-4-bromo-5-(3,5-difluorophenoxy)-2-fluoro-1,1-dioxo-2,3-dihydrobenzothiophen-3-ol]: over 100 µM; `O=S1(=O)C[C@H](O)c2c1ccc(Oc1cncc(Cl)c1)c2Br` [(3R)-4-bromo-5-[(5-chloro-3-pyridyl]oxy]-1,1-dioxo-2,3-dihydrobenzothiophen-3-ol]: over 100 µM.
Turning to `O=S1(=O)C[C@H](O)c2c1ccc(Oc1cncc(F)c1)c2Br` [(3R)-4-bromo-5-[(5-fluoro-3-pyridyl)oxy]-1,1-dioxo-2,3-dihydrobenzothiophen-3-ol], the 50% inhibitory concentration (IC50) was over 100 µM.
Regarding `N#Cc1c(Oc2cncc(Cl)c2)ccc2c1[C@@H](O)CS2(=O)=O` [(3R)-5-[(5-chloro-3-pyridyl)oxy]-3-hydroxy-1,1-dioxo-2,3-dihydrobenzothiophene-4-carbonitrile], the concentration for half-maximal inhibition (IC50) lay in the range of 25 to 100 µM.
Take `N#Cc1c(Oc2cncc(F)c2)ccc2c1[C@@H](O)CS2(=O)=O` [(3R)-5-[(5-fluoro-3-pyridyl)oxy]-3-hydroxy-1,1-dioxo-2,3-dihydrobenzothiophene-4-carbonitrile]: the IC50 is 25 to 100 µM.

What is called IC50 is the point on the concentration scale where inhibition reaches its midpoint.
